Source: PMC11965977, “Selective Antiproliferative and Apoptotic Effects of 2,6‐Diketopiperazines on MDA‐MB‐231 Triple‐Negative Breast Cancer” (Chemical Biology & Drug Design, 2025)

Assays:
Assay type in all cases: cell-based
[1] = test system: MDA‐MB‐231 triple‐negative breast cancer cells; test: Antiproliferative activity by MTT assay on MDA‐MB‐231 cell line; conditions: Homo sapiens, 24 h treatment, 1% DMSO, mean ± standard deviation of three separate determinations, read-out: IC50 of inhibitory activity on MDA‐MB‐231 triple‐negative breast cancer cells
Description: The antiproliferative activity of 2,6‐diketopiperazines 1, stereoisomers (S)‐2a‐14a, and (R)‐2b‐4b, 6b‐8b, and 11b‐14b was evaluated by the MTT assay on the MDA‐MB‐231 cell line using TSA as positive control at 50 μM. […] Compounds 1 and both (S) and (R) enantiomers reveal differences in their inhibitory effects.
(§1) Cell lines of the MDA‐MB‐231 of TNBC and VERO from healthy kidney cells used in this work were donated by ‘National Institute of Cancerology of the Ministry of Health’ from Mexico. MDA‐MB‐231 and Vero cells preserved at −70°C in DMEM F12 medium Gibco, 10% FBS, 5% DMSO, and 5% glycerol were thawed at 37°C and resuspended in DMEM F12 medium, supplemented with 10% FBS and antibiotic (penicillin 100 UI/mL, streptomycin 100 μg/mL and amphotericin 250 μg/mL) and then centrifuged at 2000 rpm for 10 min. The supernatant was removed, and the cells were resuspended in DMEM F12 medium, supplemented with 10% FBS and antibiotic, seeded in 25 cm^2 culture flasks Corning, and incubated at 37°C with 5% CO2 until at least 90% confluence was reached.
(§2) The MTT assay was used to measure metabolically active cells. Cells were seeded into 96‐well microtiter plates Corning at […] in 100 μL of DMEM‐F12 medium supplemented with 10% FBS and antibiotic Gibco (penicillin 100 IU/mL, streptomycin 100 μg/mL and amphotericin 250 μg/mL). After reaching confluence, cells were treated for 24 h with compounds 1, (S)‐2–14 and (R)‐2–4, 6–8, 11–14 stereoisomers, at concentrations of […], 0.00229, 0.0073, 0.0243, 0.081, 0.27, 0.9, 3.0, 10.0, and 12.0 mM at 1% DMSO, with compounds 1, (S)‐2a, ‐4a, and ‐5a at concentrations of 0.00066, 0.00229, 0.0073, 0.0243, 0.081, 0.27, 0.9, 3.0,10.0, and 12 mM at 1% DMSO, using DMSO 1% in DMEM F12 as the negative control and TSA as the positive control at 50 μM (Sanaei and Kavoosi [2020]). Post‐treatment, cell viability was measured by the conventional MTT dye‐reduction assay. Thus, 20 μL of MTT reagent (5 mg/mL) in PBS 1X was added to each well and incubated at 37 °C for 4 h. Viable cells with active mitochondria reduced the MTT to an insoluble purple formazan precipitate that was solubilized with the subsequent addition of 50 μL of DMSO. The formazan dye was measured spectrophotometrically using a microplate reader Molecular Devices. The cytotoxic impact of each treatment was quantified by determining cell viability as a percentage relative to untreated control cells, referred to as the percentage of control. This is calculated using the formula: [(A595 or A570 nm reading of treated cells)/(A595 or A570 nm reading of untreated cells)] × 100 (Mosmann [1983]; Plumb [1999]). All assays were performed in triplicate. Cell proliferation percentages relative to growth control cells were calculated, and inhibitory concentration 50 (IC50) values were calculated using a regression analysis of the concentration/antiproliferative activity ratio and analyzed using the statistical package prism (Graph‐Pad Software, San Diego, CA, USA).

[2] = Cytotoxicity by MTT assay on healthy Vero kidney cell line; conditions: African green monkey, Vero kidney cells (healthy), even at 12 mM concentrations (data not shown)
Description: (§3) Compounds 1, (S)‐2a, −4a, and ‐5a presented the lowest IC50 values of all the compounds tested (see Table 1), so it was interesting to investigate their toxicity in healthy cells.
as §1, §2

Vero kidney cell line = test: as above; conditions: concentrations 0.00066 to 12 mM
Description: as §3, §1, §2

MDA‐MB‐231 cell line = test: Apoptotic induction by Annexin V‐FITC/7AAD flow cytometry on MDA‐MB‐231 cell line; conditions: MDA‐MB‐231, compound at its IC50 concentration
Excerpt: This work presents the apoptotic induction of the 2,6‐DKPs 1, (S)‐stereoisomers 2a to 6a derived from Gly, Ala, Val, Leu, Ile, and Pro α‐amino acids, respectively; as well as 9a to 14a derived from Tyr, Tyr (where the OH group is protected with an acetamide group), Ser, Thr, Met, and Trp α‐amino acids, respectively on the MDA‐MB‐231 cell line by flow cytometry. In this assay, 1% DMSO was used as a negative control and TSA as a positive control (Figure 2). The inhibition of proliferation may be due, among other mechanisms, to arrest in the cell cycle, and/or to an induction of cell death. In the second case, it is important to differentiate whether this death is necrotic inflammatory or apoptotic non‐inflammatory, which is desirable for anti‐cancer agents. […]
FIGURE 5 Flow Cytometry Analysis Strategy. […] A total of 5000/seg events were analyzed for each group.
Assays were performed using the commercial kit Annexin V labeled with the fluorochrome fluorescein isothiocyanate (FITC) BD Biosciences. […] After incubation time, the quantification of MDA‐MB‐231 cells was performed by flow cytometry with a FITC and 7AAD signal detector (FL1) and (FL3) on a FACS aria (Becton Dickinson). 5000/seg events were analyzed. Apoptotic induction percentages were calculated (Graph‐Pad Software, San Diego, CA, USA).

Row | SMILES | IC50 [1] [µM] | also measured
1 | CC(C)[C@H]1NCC(=O)NC1=O [(R)‐3b] | 822 ± 1350 | –
2 | O=C1CN2CCC[C@@H]2C(=O)N1 [(R)‐6b] | 584 ± 1010 | –
3 | O=C1CN[C@H](Cc2ccccc2)C(=O)N1 [(R)‐7b] | 2150 ± 202 | –
4 | O=C1CN[C@H](Cc2ccc(OCc3ccccc3)cc2)C(=O)N1 [(R)‐8b] | 3640 ± 1220 | –
5 | O=C1CN[C@H](CO)C(=O)N1 [(R)‐11b] | 801 ± 208 | –
6 | CC(O)[C@H]1NCC(=O)NC1=O (stereo partly drawn) [(R)‐12b] | 1720 ± 85 | –
7 | CSCC[C@H]1NCC(=O)NC1=O [(R)‐13b] | 1310 ± 284 | –
8 | O=C1CN2CCC[C@H]2C(=O)N1 [(S)‐6a] | 1020 ± 167 | –
9 | O=C1CN[C@@H](Cc2ccc(OCc3ccccc3)cc2)C(=O)N1 [(S)‐8a] | 4940 ± 733 | –
10 | O=C1CN[C@@H](Cc2ccc(O)cc2)C(=O)N1 [(S)‐9a] | 1669 ± 11 | –
11 | CC(O)[C@@H]1NCC(=O)NC1=O (stereo partly drawn) [(S)‐12a] | 2100 ± 249 | Decrease in apoptotic induction at 48 h compared to the 24 h test (MDA‐MB‐231 cell line): 3%
12 | CSCC[C@@H]1NCC(=O)NC1=O [(S)‐13a] | 978 ± 96 | –

These reach a lower IC50 [1]. Values come first.

Row | IC50 [1] [µM] | SMILES | also measured
13 | 21 | C[C@H]1NCC(=O)NC1=O [(R)‐2b] | –
14 | 265 | CC(C)C[C@H]1NCC(=O)NC1=O [(R)‐4b] | –
15 | 357 ± 190 | O=C1CN[C@H](Cc2c[nH]c3ccccc23)C(=O)N1 [(R)‐14b] | –
16 | 4.6 ± 0.169 | C[C@@H]1NCC(=O)NC1=O [(S)‐2a] | viability at 24 h, 12 mM [2]: 100%; Toxicity on Vero kidney cell line (in words) (Vero kidney cell line): did not exhibit toxicity
17 | 17 | CC(C)[C@@H]1NCC(=O)NC1=O [(S)‐3a] | –
18 | 5.5 ± 0.235 | CC(C)C[C@@H]1NCC(=O)NC1=O [(S)‐4a] | viability at 24 h, 12 mM [2]: 100%; Toxicity on Vero kidney cell line (in words) (Vero kidney cell line): did not exhibit toxicity
19 | 6.8 ± 0.028 | CCC(C)[C@@H]1NCC(=O)NC1=O (stereo partly drawn) [(S)‐5a] | viability at 24 h, 12 mM [2]: 100%; Toxicity on Vero kidney cell line (in words) (Vero kidney cell line): did not exhibit toxicity
20 | 155 ± 322 | O=C1CN[C@@H](Cc2ccccc2)C(=O)N1 [(S)‐7a] | –
21 | 469 ± 860 | NC(=O)COc1ccc(C[C@@H]2NCC(=O)NC2=O)cc1 [(S)‐10a] | –
22 | 49 ± 26 | O=C1CN[C@@H](CO)C(=O)N1 [(S)‐11a] | –
23 | 12 | O=C1CN[C@@H](Cc2c[nH]c3ccccc23)C(=O)N1 [(S)‐14a] | –
24 | 4.6 ± 0.019 | O=C1CNCC(=O)N1 [Compound 1] | viability at 24 h, 12 mM [2]: 100%; Toxicity on Vero kidney cell line (in words) (Vero kidney cell line): did not exhibit toxicity
